Results reported in ChEMBL document CHEMBL1201862, “PubChem BioAssay data set” (2004).
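Values below derive from 48-hour exposures of cells grown in 96-well plates, with endpoints linearly interpolated between the two concentrations bracketing the appropriate inhibition level. GI50: concentration for 50% inhibition of growth.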 Active and inactive are the calls of the source. Rule as the data show it: active = GI50 up to about 1.1 µM and inactive = higher.

Assays:
Experiment in all cases: NCI tumour cell line growth inhibition, 48 h
XF498 = test system: XF498
KM-20L2 = test system: KM-20L2
DMS-273 = test system: DMS-273
DLD-1 = test system: DLD-1
SNB-78 = test system: SNB-78
HOP-18 = test system: HOP-18

Measured: GI50

O=S(=O)(O)c1cc(S(=O)(=O)O)c2cc(/N=N/c3ccc(/N=N/c4ccc(/C=C/c5ccc(/N=[N+](/[O-])c6ccc(/C=C/c7ccc(/N=N/c8ccc(/N=N/c9ccc%10cc(S(=O)(=O)O)cc(S(=O)(=O)O)c%10c9)cc8)cc7S(=O)(=O)O)c(S(=O)(=O)O)c6)cc5S(=O)(=O)O)c(S(=O)(=O)O)c4)cc3)ccc2c1
inactive: XF498 45.2 µM | KM-20L2 58.9 µM | DMS-273 > 55.6 µM | DLD-1 > 81.3 µM | SNB-78 53.5 µM

O=C(NC(Cc1ccc(Br)cc1)C(=O)O)c1ccc(I)cc1 (stereo unspecified)
inactive: XF498 > 100 µM | KM-20L2 > 100 µM | HOP-18 > 100 µM | DMS-273 > 100 µM | DLD-1 > 100 µM | SNB-78 > 100 µM
